Target: T1, human GlyT1c transporter (Homo sapiens, UniProt P48067)
T1 construct: expressed in transfected cells; host or cells: CHO cells (recombinant; line hGlyT1c_5_CHO is named for the uptake assay)
T1 sequence (P48067 1-706): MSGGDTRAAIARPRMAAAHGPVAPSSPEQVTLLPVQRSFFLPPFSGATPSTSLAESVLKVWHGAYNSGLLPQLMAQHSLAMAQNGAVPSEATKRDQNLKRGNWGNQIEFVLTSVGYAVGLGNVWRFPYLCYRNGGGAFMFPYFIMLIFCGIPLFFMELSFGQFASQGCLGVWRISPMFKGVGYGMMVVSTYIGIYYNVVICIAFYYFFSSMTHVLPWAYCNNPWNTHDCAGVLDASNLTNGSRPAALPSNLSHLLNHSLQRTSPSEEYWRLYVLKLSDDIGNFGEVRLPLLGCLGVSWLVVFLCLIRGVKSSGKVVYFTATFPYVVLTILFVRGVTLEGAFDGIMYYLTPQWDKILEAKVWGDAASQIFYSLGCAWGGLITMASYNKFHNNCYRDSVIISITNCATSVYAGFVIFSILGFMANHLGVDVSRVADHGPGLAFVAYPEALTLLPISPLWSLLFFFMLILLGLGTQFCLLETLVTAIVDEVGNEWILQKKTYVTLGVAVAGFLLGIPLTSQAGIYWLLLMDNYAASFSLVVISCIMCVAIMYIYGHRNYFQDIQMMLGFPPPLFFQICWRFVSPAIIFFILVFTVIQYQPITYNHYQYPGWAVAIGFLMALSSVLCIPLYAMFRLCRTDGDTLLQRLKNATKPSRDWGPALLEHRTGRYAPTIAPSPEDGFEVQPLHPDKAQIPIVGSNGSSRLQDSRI
Assay: Radioligand binding assay using recombinant CHO cell membranes expressing human GlyT1
Details: radioligand binding to human GlyT1c transporter-expressing membranes
Excerpt: 2. Radioligand binding assays using recombinant CHO cell membranes expressing human GlyT1: […]

| Compound | Ki |
| --- | --- |
| Cn1cnc(S(=O)(=O)N2C[C@H](NC(=O)Nc3ccc(F)cc3)[C@@H](c3ccc(F)cc3)C2)c1 [Example 704, 1-(4-fluorophenyl)-3-{(3R,4S)-4-(4-fluorophenyl)-1-[(1-methyl-1H-imidazol-4-yl)sulfonyl]pyrrolidin-3-yl}urea] | ≤ 1 µM |
| Cn1cnc(S(=O)(=O)N2C[C@H](NC(=O)NCc3ccccc3Cl)[C@@H](c3ccc(F)cc3)C2)c1 [Example 705, 1-(2-chlorobenzyl)-3-{(3R,4S)-4-(4-fluorophenyl)-1-[(1-methyl-1H-imidazol-4-yl)sulfonyl]pyrrolidin-3-yl}urea] | ≤ 1 µM |
| Cn1cnc(S(=O)(=O)N2C[C@H](Nc3cc(Cl)c(Cl)cn3)[C@@H](c3ccc(F)cc3)C2)c1 [Example 706, 4,5-dichloro-N-{(3R,4S)-4-(4-fluorophenyl)-1-[(1-methyl-1H-imidazol-4-yl)sulfonyl]pyrrolidin-3-yl}pyridin-2-amine] | ≤ 10 µM |
| Cn1cnc(S(=O)(=O)N2C[C@H](NCC3CCC(C(F)(F)F)CC3)[C@@H](c3ccc(F)cc3)C2)c1 (stereo partly drawn) [Example 707, (3R,4S)-4-(4-fluorophenyl)-1-[(1-methyl-1H-imidazol-4-yl)sulfonyl]-N-{[4-(trifluoromethyl)cyclohexyl]methyl}pyrrolidin-3-amine] | ≤ 1 µM |
| Cn1cnc(S(=O)(=O)N2CC(Nc3ccc(Cl)c(C(F)(F)F)c3)C(c3ncco3)C2)c1 (stereo not drawn) [Example 710, N-[4-chloro-3-(trifluoromethyl)phenyl]-1-[(1-methyl-1H-imidazol-4-yl)sulfonyl]-4-(1,3-oxazol-2-yl)pyrrolidin-3-amine] | ≤ 1 µM |
| CCCCOc1cc(N[C@H]2CN(S(=O)(=O)c3cn(C)cn3)C[C@@H]2c2ccc(F)cc2)ncn1 [Example 717, 6-butoxy-N-{(3R,4S)-4-(4-fluorophenyl)-1-[(1-methyl-1H-imidazol-4-yl)sulfonyl]pyrrolidin-3-yl}pyrimidin-4-amine] | ≤ 0.1 µM |

The remaining lines, values ahead:

| Ki | Compound |
| --- | --- |
| ≤ 10 µM | CCCCC(F)(F)C(=O)N[C@H]1CN(S(=O)(=O)c2cn(C)cn2)C[C@@H]1c1ccc(F)cc1 [Example 708, 2,2-difluoro-N-{(3R,4S)-4-(4-fluorophenyl)-1-[(1-methyl-1H-imidazol-4-yl)sulfonyl]pyrrolidin-3-yl}hexanamide] |
| ≤ 1 µM | CCOc1cc(N[C@H]2CN(S(=O)(=O)c3cn(C)cn3)C[C@@H]2c2ccc(F)cc2)ncn1 [Example 715, 6-ethoxy-N-{(3R,4S)-4-(4-fluorophenyl)-1-[(1-methyl-1H-imidazol-4-yl)sulfonyl]pyrrolidin-3-yl}pyrimidin-4-amine] |
| ≤ 0.1 µM | CC(C)COc1cc(N[C@H]2CN(S(=O)(=O)c3cn(C)cn3)C[C@@H]2c2ccc(F)cc2)ncn1 [Example 718, N-{(3R,4S)-4-(4-fluorophenyl)-1-[(1-methyl-1H-imidazol-4-yl)sulfonyl]pyrrolidin-3-yl}-6-(2-methylpropoxy)pyrimidin-4-amine] |
| ≤ 0.1 µM | Cn1cnc(S(=O)(=O)N2C[C@H](Nc3cc(OC4CCCC4)ncn3)[C@@H](c3ccc(F)cc3)C2)c1 [Example 720, 6-(cyclopentyloxy)-N-{(3R,4S)-4-(4-fluorophenyl)-1-[(1-methyl-1H-imidazol-4-yl)sulfonyl]pyrrolidin-3-yl}pyrimidin-4-amine] |
| ≤ 0.1 µM | Cn1cnc(S(=O)(=O)N2C[C@H](Nc3cc(OC4CCCCC4)ncn3)[C@@H](c3ccc(F)cc3)C2)c1 [Example 721, 6-(cyclohexyloxy)-N-{(3R,4S)-4-(4-fluorophenyl)-1-[(1-methyl-1H-imidazol-4-yl)sulfonyl]pyrrolidin-3-yl}pyrimidin-4-amine] |
| ≤ 0.01 µM | Cn1cnc(S(=O)(=O)N2C[C@H](Nc3cc(-c4ccccc4)ncn3)[C@@H](c3ccc(F)cc3)C2)c1 [Example 722, N-{(3R,4S)-4-(4-fluorophenyl)-1-[(1-methyl-1H-imidazol-4-yl)sulfonyl]pyrrolidin-3-yl}-6-phenylpyrimidin-4-amine] |
